Publication PMC5478727, “A Novel Small Molecule GDNF Receptor RET Agonist, BT13, Promotes Neurite Growth from Sensory Neurons in Vitro and Attenuates Experimental Neuropathy in the Rat” (Frontiers in Pharmacology, 2017)

Tests used:
[1] = tested on: Akt and Erk phosphorylation in parental MG87 cells; experiment: Erk1/2 and Akt phosphorylation assay in parental MG87 cells; type: cell-based, murine; details: BT13 10–100 μM
[2] = target: T1, serotonin receptor 5-HT1D (Rattus norvegicus, UniProt P28565); experiment: CEREP 5-HT1D (agonist radioligand); type: binding; details: BT13 1 μM; Cat. No. 1974; average of duplicate; read-out: Percentage of inhibition/potentiation from control
T1 construct: purchased CEREP (contract assay) 1974

[3] = tested on: Akt and Erk phosphorylation in MG87TrkA; experiment: Erk1/2 and Akt phosphorylation assay in MG87TrkA cells; type: cell-based, murine; details: BT13 10–100 μM, NGF positive control
Experimental: MG87RET, MG87TrkA, or MG87TrkB were plated on 35 mm tissue culture dishes 1–2 days before the experiment to achieve 90–95% of confluency of the cells at the day of stimulation with tested substances. If necessary, cells were transfected with 4 μg/well of GFRα1-, GFRα3-, or green fluorescent protein (GFP)-expressing plasmid using Lipofectamine 2000 (Invitrogen) for DNA delivery as described by manufacturer. Before the experiment cells were starved in serum-free DMEM containing 15 mM HEPES, pH 7.2 and 1% DMSO for 4 h and stimulated with BT13 or neurotrophic factors. Then cells were washed once with ice-cold PBS containing 1 mM Na3VO4 and 1 mM NaF and lysed on ice in 1 ml per well of RIPA-modified buffer (50 mM Tris-HCl, pH 7.4, 150 mM NaCl, 1 mM EDTA, 1% NP-40, 1% TX-100, 10% glycerol, EDTA-free protease inhibitor cocktail (Roche), 1 mM Na3VO4, 2.5 mg/ml of sodium deoxycholate, 1 mM NaF). Plates were incubated at +4°C on the horizontal shaker for 30 min with vigorous shaking. Afterwards, 80–100 μl aliquot was taken from each well to prepare whole cell lysates. This aliquot was mixed with equal volume of 2x Laemmli loading buffer (4% SDS, 20% glycerol, 10% 2-mercaptoethanol, 0.004% bromphenol blue, 0.125 M Tris HCl, pH 6.8) and boiled for 10 min at 100°C. Remaining cell lysates were used for immunoprecipitation of RET or Trk receptors. […]

[4] = target: dopamine receptor D2L (Homo sapiens, UniProt P14416); experiment: CEREP D2L (h) (antagonist radioligand); type: binding; details: BT13 1 μM; Cat. No. 1405; average of duplicate; read-out: Percentage of inhibition/potentiation from control
[5] = target: 5-HT transporter (Homo sapiens, UniProt P31645); experiment: biochemical; details: read-out: Percentage of inhibition/potentiation from control
[6] = Plasma stability, human plasma; type: in vitro ADME; details: read-out: Plasma stability (% remaining after 1 h)
[7] = target: T2, CYP3A4 (Homo sapiens, UniProt P08684); experiment: CYP inhibition, fluorescent assay; type: biochemical; details: read-out: Inhibition of CYP isoforms (IC50), CYP3A4
T2 construct: Cyathus Exquirere (contract laboratory)

[8] = tested on: healthy rats; experiment: Acute nociception and motor coordination in healthy animals; type: in vivo, rat; details: BT13 25 mg/kg s.c.
[9] = target: cannabinoid receptor CB1 (Homo sapiens, UniProt P21554); experiment: CEREP CB1 (h) (agonist radioligand); type: binding; details: BT13 1 μM; Cat. No. 0036; average of duplicate; read-out: Percentage of inhibition/potentiation from control
[10] = tested on: rats with spinal nerve ligation (L5/L6); experiment: Spinal nerve ligation (Chung's) model of experimental neuropathy, von Frey test; details: for increase of ipsilateral paw withdrawal threshold (PWT): von Frey, day 12 post-surgery
[11] = target: T3, adenosine receptor A2B (Homo sapiens, UniProt P29275); experiment: CEREP A2B (h) (antagonist radioligand); type: binding; details: BT13 1 μM; Cat. No. 0005; average of duplicate; read-out: Percentage of inhibition/potentiation from control
T3 construct: purchased CEREP (contract assay) Cat# 0005

[12] = target: T4, GDNF receptor complexes (cells overexpressing GFRα1/RET) (Homo sapiens, UniProt P07949); experiment: Displacement of 125I-GDNF; type: binding; details: BT13 50 μM; n = 5
T4 construct: full-length human RET (long isoform) in pCR3.1; expressed in transfected cells

[13] = target: T5, CYP2D6 (Homo sapiens, UniProt P10635); experiment: CYP inhibition, fluorescent assay; type: biochemical; details: read-out: Inhibition of CYP isoforms (IC50), CYP2D6
T5 construct: Cyathus Exquirere (contract laboratory)

[14] = target: norepinephrine transporter (Homo sapiens, UniProt P23975); experiment: biochemical; details: read-out: Percentage of inhibition/potentiation from control
[15] = target: T6, Protein Tyrosine Phosphatase, PTPRC (CD45) (Homo sapiens, UniProt P08575); experiment: CEREP Protein Tyrosine Phosphatase, PTPRC (CD45); type: biochemical; details: BT13 1 μM; Cat. No. 3956; average of duplicate; read-out: Percentage of inhibition/potentiation from control
T6 construct: purchased CEREP (contract screening, standard company protocols) 3956
T6 sequence (P08575 26-1306): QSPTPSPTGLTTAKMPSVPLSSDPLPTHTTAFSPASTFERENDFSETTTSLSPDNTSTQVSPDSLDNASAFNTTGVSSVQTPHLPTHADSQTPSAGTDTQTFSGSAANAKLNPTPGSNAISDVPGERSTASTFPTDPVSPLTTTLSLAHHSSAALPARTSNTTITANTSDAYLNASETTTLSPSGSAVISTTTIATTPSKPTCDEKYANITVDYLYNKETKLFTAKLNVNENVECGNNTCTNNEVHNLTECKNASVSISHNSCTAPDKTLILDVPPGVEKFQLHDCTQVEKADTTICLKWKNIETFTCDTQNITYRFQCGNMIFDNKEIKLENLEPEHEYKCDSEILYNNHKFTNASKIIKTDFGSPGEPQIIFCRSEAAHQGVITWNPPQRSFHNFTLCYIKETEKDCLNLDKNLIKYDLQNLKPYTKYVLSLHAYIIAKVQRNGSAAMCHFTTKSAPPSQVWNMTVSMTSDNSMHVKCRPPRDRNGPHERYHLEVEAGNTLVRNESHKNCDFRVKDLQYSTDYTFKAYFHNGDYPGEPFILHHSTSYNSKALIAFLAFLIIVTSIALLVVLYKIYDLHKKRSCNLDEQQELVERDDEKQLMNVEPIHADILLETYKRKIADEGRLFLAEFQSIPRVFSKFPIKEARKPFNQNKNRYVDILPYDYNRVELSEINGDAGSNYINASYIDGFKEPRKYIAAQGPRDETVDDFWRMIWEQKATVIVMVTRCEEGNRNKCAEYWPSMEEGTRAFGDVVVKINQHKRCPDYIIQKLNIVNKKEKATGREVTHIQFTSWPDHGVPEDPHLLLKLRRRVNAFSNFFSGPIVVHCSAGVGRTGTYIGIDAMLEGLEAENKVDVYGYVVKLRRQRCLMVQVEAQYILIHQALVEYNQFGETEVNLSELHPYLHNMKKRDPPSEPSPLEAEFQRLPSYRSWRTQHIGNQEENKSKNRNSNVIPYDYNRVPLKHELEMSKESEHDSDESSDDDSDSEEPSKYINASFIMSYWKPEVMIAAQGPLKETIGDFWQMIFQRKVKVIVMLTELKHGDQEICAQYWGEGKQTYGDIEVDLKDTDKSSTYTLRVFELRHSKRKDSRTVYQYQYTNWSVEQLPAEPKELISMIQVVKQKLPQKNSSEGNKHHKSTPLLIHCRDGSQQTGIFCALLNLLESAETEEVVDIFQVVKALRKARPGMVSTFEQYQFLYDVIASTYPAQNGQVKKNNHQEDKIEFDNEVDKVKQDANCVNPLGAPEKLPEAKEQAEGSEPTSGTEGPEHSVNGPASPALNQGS

T2 sequence (P08684 whole entry, canonical isoform): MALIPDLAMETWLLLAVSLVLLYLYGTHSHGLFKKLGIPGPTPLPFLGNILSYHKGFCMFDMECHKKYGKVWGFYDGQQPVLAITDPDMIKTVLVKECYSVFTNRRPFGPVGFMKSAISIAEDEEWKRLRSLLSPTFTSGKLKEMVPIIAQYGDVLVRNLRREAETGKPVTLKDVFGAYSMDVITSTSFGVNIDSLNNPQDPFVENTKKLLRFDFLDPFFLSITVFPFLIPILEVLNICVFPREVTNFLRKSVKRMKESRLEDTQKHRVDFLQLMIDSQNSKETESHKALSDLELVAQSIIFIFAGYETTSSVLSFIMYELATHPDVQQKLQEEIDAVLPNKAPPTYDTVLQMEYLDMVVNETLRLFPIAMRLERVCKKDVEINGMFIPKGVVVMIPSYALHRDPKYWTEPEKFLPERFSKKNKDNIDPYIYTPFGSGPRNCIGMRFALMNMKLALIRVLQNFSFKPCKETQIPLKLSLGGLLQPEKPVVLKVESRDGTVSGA
Sequence of norepinephrine transporter (P23975 whole entry): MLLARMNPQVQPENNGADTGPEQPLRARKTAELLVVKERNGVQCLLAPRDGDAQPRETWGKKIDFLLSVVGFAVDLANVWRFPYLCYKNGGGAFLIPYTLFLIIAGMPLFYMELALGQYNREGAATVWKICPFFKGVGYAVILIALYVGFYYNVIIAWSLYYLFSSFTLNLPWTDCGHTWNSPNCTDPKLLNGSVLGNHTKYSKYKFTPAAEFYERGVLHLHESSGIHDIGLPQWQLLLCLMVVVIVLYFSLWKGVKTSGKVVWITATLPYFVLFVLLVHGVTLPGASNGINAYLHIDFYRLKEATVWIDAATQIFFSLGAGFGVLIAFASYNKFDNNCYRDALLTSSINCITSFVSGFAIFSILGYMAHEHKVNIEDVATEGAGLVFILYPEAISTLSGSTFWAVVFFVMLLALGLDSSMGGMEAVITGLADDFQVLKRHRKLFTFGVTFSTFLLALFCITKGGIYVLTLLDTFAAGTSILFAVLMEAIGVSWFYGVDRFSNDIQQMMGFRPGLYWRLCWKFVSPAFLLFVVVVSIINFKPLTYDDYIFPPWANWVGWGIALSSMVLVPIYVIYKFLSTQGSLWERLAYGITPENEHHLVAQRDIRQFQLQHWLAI
Sequence of dopamine receptor D2L (P14416 whole entry): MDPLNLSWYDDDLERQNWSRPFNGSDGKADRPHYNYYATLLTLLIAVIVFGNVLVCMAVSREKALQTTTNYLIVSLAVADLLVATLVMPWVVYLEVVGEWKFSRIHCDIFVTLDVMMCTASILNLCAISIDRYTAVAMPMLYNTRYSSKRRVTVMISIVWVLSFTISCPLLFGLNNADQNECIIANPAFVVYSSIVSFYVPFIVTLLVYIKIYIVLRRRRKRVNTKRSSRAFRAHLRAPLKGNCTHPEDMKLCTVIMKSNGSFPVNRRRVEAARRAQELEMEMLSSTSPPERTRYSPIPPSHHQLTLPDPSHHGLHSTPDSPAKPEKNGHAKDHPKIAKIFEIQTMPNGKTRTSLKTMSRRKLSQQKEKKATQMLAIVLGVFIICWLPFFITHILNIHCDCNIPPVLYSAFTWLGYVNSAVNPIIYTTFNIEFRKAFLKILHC
T5 sequence (P10635 whole entry, canonical isoform): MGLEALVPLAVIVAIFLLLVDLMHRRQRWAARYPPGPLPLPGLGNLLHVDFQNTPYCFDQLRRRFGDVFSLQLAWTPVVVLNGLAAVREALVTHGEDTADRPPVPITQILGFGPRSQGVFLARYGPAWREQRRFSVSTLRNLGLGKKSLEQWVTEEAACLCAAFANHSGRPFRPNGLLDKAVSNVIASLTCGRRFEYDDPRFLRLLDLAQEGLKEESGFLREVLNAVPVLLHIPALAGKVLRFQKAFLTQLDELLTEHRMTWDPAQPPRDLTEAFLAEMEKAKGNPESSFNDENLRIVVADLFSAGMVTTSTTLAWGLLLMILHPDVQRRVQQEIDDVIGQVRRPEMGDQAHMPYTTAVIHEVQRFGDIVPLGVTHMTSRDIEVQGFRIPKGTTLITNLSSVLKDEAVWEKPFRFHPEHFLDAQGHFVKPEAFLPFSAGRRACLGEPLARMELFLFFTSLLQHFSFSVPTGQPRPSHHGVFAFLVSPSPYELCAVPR
Sequence of cannabinoid receptor CB1 (P21554 whole entry): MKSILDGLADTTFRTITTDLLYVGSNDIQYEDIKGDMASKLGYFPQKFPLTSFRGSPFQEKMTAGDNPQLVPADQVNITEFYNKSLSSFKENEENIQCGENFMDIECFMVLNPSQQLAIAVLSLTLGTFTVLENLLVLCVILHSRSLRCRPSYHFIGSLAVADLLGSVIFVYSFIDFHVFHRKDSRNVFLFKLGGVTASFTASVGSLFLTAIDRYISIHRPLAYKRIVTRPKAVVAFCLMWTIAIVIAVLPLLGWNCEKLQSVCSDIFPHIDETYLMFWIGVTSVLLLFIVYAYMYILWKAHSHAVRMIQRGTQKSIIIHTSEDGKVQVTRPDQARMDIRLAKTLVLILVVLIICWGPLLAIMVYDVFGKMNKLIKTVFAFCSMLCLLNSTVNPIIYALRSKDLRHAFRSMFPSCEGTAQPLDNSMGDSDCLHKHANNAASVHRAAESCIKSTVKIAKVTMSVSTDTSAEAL
T1 sequence (P28565 whole entry): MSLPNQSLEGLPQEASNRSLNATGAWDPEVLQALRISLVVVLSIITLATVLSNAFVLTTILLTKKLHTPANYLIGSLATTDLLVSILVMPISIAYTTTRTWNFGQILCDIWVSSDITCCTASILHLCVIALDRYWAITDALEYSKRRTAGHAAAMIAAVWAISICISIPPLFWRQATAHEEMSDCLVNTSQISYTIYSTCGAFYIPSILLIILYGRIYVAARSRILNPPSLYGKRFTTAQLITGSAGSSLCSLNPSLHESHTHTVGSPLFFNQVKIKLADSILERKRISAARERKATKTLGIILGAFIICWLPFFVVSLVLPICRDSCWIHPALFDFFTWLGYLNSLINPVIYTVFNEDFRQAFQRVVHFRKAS
Sequence of 5-HT transporter (P31645 whole entry): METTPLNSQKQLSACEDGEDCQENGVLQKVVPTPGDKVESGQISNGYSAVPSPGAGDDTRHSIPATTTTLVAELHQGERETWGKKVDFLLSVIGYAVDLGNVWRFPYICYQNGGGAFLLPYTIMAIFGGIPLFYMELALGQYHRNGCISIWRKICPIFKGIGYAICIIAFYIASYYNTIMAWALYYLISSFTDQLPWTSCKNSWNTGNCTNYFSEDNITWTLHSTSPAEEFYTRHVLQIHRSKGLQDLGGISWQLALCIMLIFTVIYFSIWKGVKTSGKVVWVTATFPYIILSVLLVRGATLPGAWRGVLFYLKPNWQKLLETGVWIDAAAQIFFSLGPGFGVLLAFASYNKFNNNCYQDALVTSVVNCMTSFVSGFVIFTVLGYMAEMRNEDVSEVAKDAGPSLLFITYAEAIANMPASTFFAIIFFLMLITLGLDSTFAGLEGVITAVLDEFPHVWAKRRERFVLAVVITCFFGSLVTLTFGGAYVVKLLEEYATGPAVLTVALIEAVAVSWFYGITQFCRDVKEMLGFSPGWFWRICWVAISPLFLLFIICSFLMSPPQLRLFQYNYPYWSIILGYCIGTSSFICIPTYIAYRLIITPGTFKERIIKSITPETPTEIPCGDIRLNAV

CCN(CC)S(=O)(=O)c1ccc(OC)c(N2CCN(C(=O)c3ccc(F)cc3C(F)(F)F)CC2)c1 [BT13]
Akt and Erk phosphorylation [1]: no Akt or Erk phosphorylation was observed | inhibition at 1 µM [2]: 1% | Akt and Erk phosphorylation [3]: no Akt or Erk phosphorylation was observed | inhibition at 1 µM [4]: -3% | inhibition at 1 µM [5]: 0% | remaining at 1 h [6]: 97 ± 0.1% | IC50 [7]: 3.2 ± 0.42 µM | baseline sensitivity to mechanical stimuli (paw pressure test) [8]: no significant effect | baseline sensitivity to thermal stimuli (acetone test) [8]: no significant effect | baseline sensitivity to thermal stimuli (hot plate) [8]: no significant effect | baseline sensitivity to thermal stimuli (tail flick) [8]: no significant effect | motor performance (rotarod test) [8]: no significant effect | inhibition at 1 µM [9]: 9% | increase of ipsilateral paw withdrawal threshold (PWT) ([10]; BT13 20 mg/kg s.c. on days 1, 3, 5, 8, 10, 12): 2.5 times | increase of ipsilateral paw withdrawal threshold (PWT) ([10]; BT13 25 mg/kg s.c. on days 1, 3, 5, 8, 10, 12): 2.9 times | effect on contralateral PWTs ([10]; repeated post-surgical s.c. administration of BT13): did not influence | inhibition at 1 µM [11]: -14% | reduction of 125I-GDNF binding [12]: 25 ± 10.2% | IC50 [13]: > 100 µM | inhibition at 1 µM [14]: -5% | inhibition at 1 µM [15]: -3%
